Measurements: patent US9884063B2, “Amido-substituted azole compounds” (Bayer Pharma Aktiengesellschaft, priority 2014, dated 2018)

How the values were obtained:
[1] = test system: HEK293 FOP control reporter cell line; test: HEK293 FOP Assay (FOP control vector luciferase reporter); type: cell-based; conditions: Homo sapiens
How it was run: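 Compound series 50 μM to 15 nM, 3.16-fold steps, were diluted in CAFTY buffer (pH 7.4, 2 mM Ca2+, 0.01% BSA) and tested alongside the TOP reporter line. Human Wnt-3a was added at 2500–5 ng/ml in two-fold steps. The control HEK293 line stably holds an FOP vector whose TCF elements are randomized and non-functional.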

[2] = target: T1, TNKS2 (Homo sapiens, UniProt Q9H2K2); test: TNKS2 Assay 1 (TNKS2 Histone Ribosylation Assay Kit, biotin-labeled NAD+); type: biochemical; conditions: chemiluminescent readout, 384 well
T1 sequence (Q9H2K2 1-1166): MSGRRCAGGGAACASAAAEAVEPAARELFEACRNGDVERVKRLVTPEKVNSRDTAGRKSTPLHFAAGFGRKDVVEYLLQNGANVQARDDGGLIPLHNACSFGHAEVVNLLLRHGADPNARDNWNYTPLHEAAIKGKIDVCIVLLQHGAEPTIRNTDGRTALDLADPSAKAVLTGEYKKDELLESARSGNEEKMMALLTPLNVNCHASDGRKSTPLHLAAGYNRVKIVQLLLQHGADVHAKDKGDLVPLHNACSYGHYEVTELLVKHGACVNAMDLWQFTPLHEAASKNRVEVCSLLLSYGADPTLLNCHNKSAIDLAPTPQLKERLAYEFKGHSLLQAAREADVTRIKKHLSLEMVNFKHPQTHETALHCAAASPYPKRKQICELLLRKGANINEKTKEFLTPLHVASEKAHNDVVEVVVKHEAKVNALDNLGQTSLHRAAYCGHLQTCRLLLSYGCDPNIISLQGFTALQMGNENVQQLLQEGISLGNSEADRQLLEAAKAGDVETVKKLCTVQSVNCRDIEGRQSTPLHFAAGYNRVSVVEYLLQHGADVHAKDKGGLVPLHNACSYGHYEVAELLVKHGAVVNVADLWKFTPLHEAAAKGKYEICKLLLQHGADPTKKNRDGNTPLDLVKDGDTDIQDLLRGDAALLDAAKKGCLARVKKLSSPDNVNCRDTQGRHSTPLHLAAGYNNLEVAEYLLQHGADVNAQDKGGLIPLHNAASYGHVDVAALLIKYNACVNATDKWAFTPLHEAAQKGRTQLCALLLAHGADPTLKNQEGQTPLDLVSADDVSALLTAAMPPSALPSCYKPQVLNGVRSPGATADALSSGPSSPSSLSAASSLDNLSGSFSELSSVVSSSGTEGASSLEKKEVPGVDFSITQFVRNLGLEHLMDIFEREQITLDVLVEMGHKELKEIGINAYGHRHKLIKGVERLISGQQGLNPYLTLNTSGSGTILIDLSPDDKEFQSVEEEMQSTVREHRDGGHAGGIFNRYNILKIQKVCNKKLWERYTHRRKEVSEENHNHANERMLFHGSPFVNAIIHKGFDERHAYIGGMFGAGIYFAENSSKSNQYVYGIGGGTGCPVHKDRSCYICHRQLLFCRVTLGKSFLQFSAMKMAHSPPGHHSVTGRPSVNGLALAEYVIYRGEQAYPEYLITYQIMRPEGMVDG
Method: The potency of the compounds according to the invention was assessed applying an in vitro inhibition assay. The TNKS2 catalyzed NAD^+-dependent ribosylation of a suitable protein substrate was detected using a commercially available biotin/streptavidin binding based assay format [TNKS2 Histone Ribosylation Assay Kit (Biotin-labeled NAD+), Catalog #80572; BPS Bioscience, San Diego, USA]. Here, the incorporation of a biotin-labeled NAD+ during the TNKS2 catalyzed ribosylation reaction was detected with a streptavidin-HRP coupled chemi-luminescent readout. The intensity of the readout signal is proportional to the incorporated NAD^+. Inhibition of TNKS2 leads to a decreased incorporation of NAD^+ and consequently to a lower readout signal intensity. The concentration of a test compound which inhibits the enzyme activity by 50% (corresponds to half of the normed readout signal intensity) is reported as IC50.
The assay was conducted in a 384 well MTP format according to the manufacturer's protocol [bpsbioscience.com/poly-adp-ribose-polymerase/assay-kit/tnks2-histone-ribosylation-assay-kit-biotin-labeled-nad-80572 referencing: Brown, J. A., Marala, R. B. J. Pharmacol. Toxicol. Methods 2002 47:137-41]. and using a BMG Pherastar MTP reader [BMG-Labtech, Offenburg, Germany].

[3] = HEK293 FOP control reporter cells, 16 hours, luciferase, dilution series from 50 μM
[4] = HEK293 FOP control reporter cell line, 16 hours incubation, compound dilution series 50 μM to 15 nM

Row | SMILES | IC50 [1, 3] [nM] | IC50 ([2]; Table 2) [nM] | IC50 ([2]; first table) [nM] | IC50 [1, 4] [nM]
1 | CNC(=O)c1nc[nH]c1C(=O)Nc1ccc(NC(=O)c2c(Cl)cccc2Cl)cc1 [Example 26, N^5-{4-[(2,6-dichlorobenzoyl)amino]phenyl}-N^4-methyl-1H-imidazole-4,5-dicarboxamide] | ≥ 50000 | 160 | 160 | –
2 | CNC(=O)c1nc[nH]c1C(=O)Nc1ccc(NC(=O)c2ccccc2Cl)cc1 [Example 27, N^5-{4-[(2-chlorobenzoyl)amino]phenyl}-N^4-methyl-1H-imidazole-4,5-dicarboxamide] | ≥ 50000 | 40 | 40 | –
3 | CNC(=O)c1nc[nH]c1C(=O)Nc1ccc(NC(=O)c2ccc(OCCN3CCN(C)CC3)cc2Cl)cc1 [Example 28, N^5-[4-({2-chloro-4-[2-(4-methylpiperazin-1-yl)ethoxy]benzoyl}amino)phenyl]-N^4-methyl-1H-imidazole-4,5-dicarboxamide] | 42000 | 60 | 60 | 36000
4 | O=C(Nc1ccc(NC(=O)c2[nH]cnc2C(=O)NCC(F)(F)F)cc1)c1ccc(F)cc1Cl [Example 30, N^4-{4-[(2-chloro-4-fluorobenzoyl)amino]phenyl}-N^5-(2,2,2-trifluoroethyl)-1H-imidazole-4,5-dicarboxamide] | 37500 | 70 | 70 | –
5 | CNC(=O)c1[nH]cnc1C(=O)Nc1ccc(NC(=O)c2cc(Cl)sc2Cl)cc1 [Example 213, N^4-(4-{[(2,5-dichloro-3-thienyl)carbonyl]amino}phenyl)-N^5-methyl-1H-imidazole-4,5-dicarboxamide] | – | > 100000 | – | 8400
